Like-named read-outs stand apart in the source and are kept apart here.
Experiments:
[1] = system: iCell endothelial cells (human iPSC-derived ECs); assay: Tube formation (tubulogenesis) assay in iCell endothelial cells, 18 h; assay type: cell-based; settings: Homo sapiens, Endothelial cell, iPSC-EC; for activity at 0.1 µM: 0.10 µM; for minimal effective concentration: 100.00 = highest concentration tested
Method in brief: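 Tube formation was measured by calcein AM imaging after overnight compound exposure (37°C, 0.5% DMSO vehicle) of human iPSC-derived ECs, 7,500/well, on reduced-growth-factor Geltrex in starvation medium. Vehicle-normalized data fitted to four-parameter logistic; POD set at one vehicle SD; without response, 100 μM taken as NOAEL.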

HUVECs = assay: Tube formation (tubulogenesis) assay in HUVECs, 18 h; assay type: cell-based, human; settings: Homo sapiens, HUVEC, 18 h, HUVECs tube formation; for activity at 0.01 µM: concentration 0.01 µM; for activity at 0.1 µM: concentration 0.10 µM; for activity at 1 µM: concentration 1.00 µM; for activity at 10 µM: concentration 10.00 µM; for activity at 100 µM: concentration 100.00 µM
Method in brief: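 HUVECs (passage 1–5) seeded on reduced-growth-factor basement membrane and exposed to compounds overnight at 37°C, 5% CO2, in 2× maintenance medium with 12.5 ng/mL VEGF; 0.5% DMSO vehicle. Calcein AM-stained tube networks imaged and analysed; vehicle-normalized readouts fit to four-parameter logistic, POD set at one SD of vehicle means.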

[2] = 0.00 µM = 100.00, read-out: endo.mtl.18hr
[3] = 0.00 µM = 100.00, read-out: endo.tlps.18hr
[4] = 0.00 µM = 100.00, read-out: endo.tta.18hr
[5] = 0.00 µM = 100.00, read-out: endo.ttl.18hr
[6] = MAX 100.00, read-out: huvec.mtl.18hr POD
[7] = MAX 100.00, read-out: huvec.tlps.18hr POD
[8] = MAX 100.00, read-out: huvec.tta.18hr POD
[9] = MAX 100.00, read-out: huvec.ttl.18hr POD
[10] = 0.00 µM = 100.00, read-out: huvec.mtl.18hr
[11] = 0.00 µM = 100.00, read-out: huvec.tlps.18hr
[12] = 0.00 µM = 100.00, read-out: huvec.tta.18hr
[13] = 0.00 µM = 100.00, read-out: huvec.ttl.18hr

## Clc1ccc(Cl)c(-c2c(Cl)ccc(Cl)c2Cl)c1 [PCB95]
[1]; [2]
  activity at 0.01 µM: 111%
  activity at 0.1 µM: 103%
  activity at 1 µM: 108%
  activity at 10 µM: 109%
  activity at 100 µM: 47%
[1]; [3]
  activity at 0.01 µM: 84.5%
  activity at 0.1 µM: 85.8%
  activity at 1 µM: 115%
  activity at 10 µM: 119%
  activity at 100 µM: 16%
[1]; [4]
  activity at 0.01 µM: 111%
  activity at 0.1 µM: 99%
  activity at 1 µM: 97.2%
  activity at 10 µM: 113%
  activity at 100 µM: 8.76%
[1]; [5]
  activity at 0.01 µM: 116%
  activity at 0.1 µM: 106%
  activity at 1 µM: 104%
  activity at 10 µM: 123%
  activity at 100 µM: 11%
[1]; read-out: endo.mtl.18hr POD
  minimal effective concentration: 48.6 µM
[1]; read-out: endo.tlps.18hr POD
  minimal effective concentration: 53.9 µM
[1]; read-out: endo.tta.18hr POD
  minimal effective concentration: 48.7 µM
[1]; read-out: endo.ttl.18hr POD
  minimal effective concentration: 55.7 µM
HUVECs; [6]
  minimal effective concentration: 8.29 µM
HUVECs; [7]
  minimal effective concentration: 100 µM
HUVECs; [8]
  minimal effective concentration: 100 µM
HUVECs; [9]
  minimal effective concentration: 100 µM
HUVECs; [10]
  activity at 0.01 µM: 96.9%
  activity at 0.1 µM: 82.7%
  activity at 1 µM: 104%
  activity at 10 µM: 87.4%
  activity at 100 µM: 72.8%
HUVECs; [11]
  activity at 0.01 µM: 80.5%
  activity at 0.1 µM: 88.7%
  activity at 1 µM: 86.3%
  activity at 10 µM: 88.9%
  activity at 100 µM: 64.1%
HUVECs; [12]
  activity at 0.01 µM: 75.1%
  activity at 0.1 µM: 71.1%
  activity at 1 µM: 78.7%
  activity at 10 µM: 84%
  activity at 100 µM: 68.8%
HUVECs; [13]
  activity at 0.01 µM: 63%
  activity at 0.1 µM: 63.9%
  activity at 1 µM: 68.7%
  activity at 10 µM: 79.8%
  activity at 100 µM: 61.4%

## Clc1ccc(-c2cc(Cl)c(Cl)c(Cl)c2)cc1Cl [PCB126]
[1]; [2]
  activity at 0.01 µM: 99.5%
  activity at 0.1 µM: 125%
  activity at 1 µM: 104%
  activity at 10 µM: 93.8%
  activity at 100 µM: 74.1%
[1]; [3]
  activity at 0.01 µM: 175%
  activity at 0.1 µM: 110%
  activity at 1 µM: 99.1%
  activity at 10 µM: 52.4%
  activity at 100 µM: 40.1%
[1]; [4]
  activity at 0.01 µM: 91%
  activity at 0.1 µM: 130%
  activity at 1 µM: 126%
  activity at 10 µM: 91.2%
  activity at 100 µM: 41.4%
[1]; [5]
  activity at 0.01 µM: 90.1%
  activity at 0.1 µM: 136%
  activity at 1 µM: 125%
  activity at 10 µM: 100%
  activity at 100 µM: 39.6%
[1]; read-out: endo.mtl.18hr POD
  minimal effective concentration: 28.1 µM
[1]; read-out: endo.tlps.18hr POD
  minimal effective concentration: 4.68 µM
[1]; read-out: endo.tta.18hr POD
  minimal effective concentration: 25.7 µM
[1]; read-out: endo.ttl.18hr POD
  minimal effective concentration: 38.9 µM
HUVECs; [6]
  minimal effective concentration: 100 µM
HUVECs; [7]
  minimal effective concentration: 100 µM
HUVECs; [8]
  minimal effective concentration: 100 µM
HUVECs; [9]
  minimal effective concentration: 100 µM
HUVECs; [10]
  activity at 0.01 µM: 93.6%
  activity at 0.1 µM: 98.7%
  activity at 1 µM: 87.8%
  activity at 10 µM: 89.6%
  activity at 100 µM: 83.2%
HUVECs; [11]
  activity at 0.01 µM: 51.1%
  activity at 0.1 µM: 67.7%
  activity at 1 µM: 61.4%
  activity at 10 µM: 52.3%
  activity at 100 µM: 59.4%
HUVECs; [12]
  activity at 0.01 µM: 51.1%
  activity at 0.1 µM: 80.9%
  activity at 1 µM: 77.3%
  activity at 10 µM: 94.3%
  activity at 100 µM: 92.7%
HUVECs; [13]
  activity at 0.01 µM: 53.8%
  activity at 0.1 µM: 84.3%
  activity at 1 µM: 83.6%
  activity at 10 µM: 100%
  activity at 100 µM: 88.9%

From paper PMC7377239, “Cardiovascular Effects of Polychlorinated Biphenyls and Their Major Metabolites” (Environmental Health Perspectives, 2020)
